Laboratory results from ChEMBL document CHEMBL5370605, “Discovery of Novel Fedratinib-Based HDAC/JAK/BRD4 Triple Inhibitors with Remarkable Antitumor Activity against Triple Negative Breast Cancer” (J Med Chem, 2023).

Tests used:
[1] = Tmax in ICR (CD-1) mouse at 50 mg/kg, ip measured for 24 hrs by LC-MS/MS analysis; assay type: ADME, organism-based; conditions: in vivo
[2] = MRT (0 to t) in ICR (CD-1) mouse at 50 mg/kg, ip measured for 24 hrs by LC-MS/MS analysis; assay type: ADME, organism-based; conditions: in vivo
[3] = Half life in ICR (CD-1) mouse at 10 mg/kg, iv measured for 24 hrs by LC-MS/MS analysis; assay type: ADME, organism-based; conditions: in vivo
[4] = target: Non-receptor tyrosine-protein kinase TYK2 (Homo sapiens, UniProt P29597); assay: Inhibition of TYK2 (unknown origin) incubated for 40 mins in presence of ATP by Kinase-glo luminescent assay
Non-receptor tyrosine-protein kinase TYK2, sequence (P29597 whole entry): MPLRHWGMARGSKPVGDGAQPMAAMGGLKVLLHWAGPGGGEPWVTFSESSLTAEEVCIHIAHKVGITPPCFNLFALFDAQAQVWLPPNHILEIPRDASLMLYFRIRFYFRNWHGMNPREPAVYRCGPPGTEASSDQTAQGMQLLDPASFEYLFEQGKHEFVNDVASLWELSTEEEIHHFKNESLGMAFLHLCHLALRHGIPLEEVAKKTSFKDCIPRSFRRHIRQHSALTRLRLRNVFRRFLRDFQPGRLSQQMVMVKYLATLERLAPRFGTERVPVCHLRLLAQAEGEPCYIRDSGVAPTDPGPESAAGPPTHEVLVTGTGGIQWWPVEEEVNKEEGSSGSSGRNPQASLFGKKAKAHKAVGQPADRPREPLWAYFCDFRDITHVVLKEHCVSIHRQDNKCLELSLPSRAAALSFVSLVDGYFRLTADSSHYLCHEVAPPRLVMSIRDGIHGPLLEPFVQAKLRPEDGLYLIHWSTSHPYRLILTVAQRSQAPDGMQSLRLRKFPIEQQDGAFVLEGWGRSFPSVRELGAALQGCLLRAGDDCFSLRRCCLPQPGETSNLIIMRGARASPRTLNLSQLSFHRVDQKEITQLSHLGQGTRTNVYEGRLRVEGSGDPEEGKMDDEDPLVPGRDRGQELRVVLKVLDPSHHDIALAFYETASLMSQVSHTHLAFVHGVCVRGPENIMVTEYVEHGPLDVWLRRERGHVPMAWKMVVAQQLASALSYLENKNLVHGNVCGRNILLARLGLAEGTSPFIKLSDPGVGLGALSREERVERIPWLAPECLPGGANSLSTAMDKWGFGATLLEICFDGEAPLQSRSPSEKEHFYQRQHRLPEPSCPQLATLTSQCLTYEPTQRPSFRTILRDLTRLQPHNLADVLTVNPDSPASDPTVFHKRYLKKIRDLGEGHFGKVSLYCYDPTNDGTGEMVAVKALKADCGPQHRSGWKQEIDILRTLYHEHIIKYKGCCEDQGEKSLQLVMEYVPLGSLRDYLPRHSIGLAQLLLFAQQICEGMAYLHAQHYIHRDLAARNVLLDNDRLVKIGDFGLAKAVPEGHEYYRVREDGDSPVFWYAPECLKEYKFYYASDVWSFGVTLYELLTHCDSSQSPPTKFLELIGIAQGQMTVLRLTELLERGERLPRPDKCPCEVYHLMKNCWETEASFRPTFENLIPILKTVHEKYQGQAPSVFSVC

[5] = target: Tyrosine-protein kinase JAK2 (Homo sapiens, UniProt O60674); assay: Inhibition of JAK2 (unknown origin) incubated for 40 mins in presence of ATP by Kinase-glo luminescent assay
Tyrosine-protein kinase JAK2, sequence (O60674 whole entry): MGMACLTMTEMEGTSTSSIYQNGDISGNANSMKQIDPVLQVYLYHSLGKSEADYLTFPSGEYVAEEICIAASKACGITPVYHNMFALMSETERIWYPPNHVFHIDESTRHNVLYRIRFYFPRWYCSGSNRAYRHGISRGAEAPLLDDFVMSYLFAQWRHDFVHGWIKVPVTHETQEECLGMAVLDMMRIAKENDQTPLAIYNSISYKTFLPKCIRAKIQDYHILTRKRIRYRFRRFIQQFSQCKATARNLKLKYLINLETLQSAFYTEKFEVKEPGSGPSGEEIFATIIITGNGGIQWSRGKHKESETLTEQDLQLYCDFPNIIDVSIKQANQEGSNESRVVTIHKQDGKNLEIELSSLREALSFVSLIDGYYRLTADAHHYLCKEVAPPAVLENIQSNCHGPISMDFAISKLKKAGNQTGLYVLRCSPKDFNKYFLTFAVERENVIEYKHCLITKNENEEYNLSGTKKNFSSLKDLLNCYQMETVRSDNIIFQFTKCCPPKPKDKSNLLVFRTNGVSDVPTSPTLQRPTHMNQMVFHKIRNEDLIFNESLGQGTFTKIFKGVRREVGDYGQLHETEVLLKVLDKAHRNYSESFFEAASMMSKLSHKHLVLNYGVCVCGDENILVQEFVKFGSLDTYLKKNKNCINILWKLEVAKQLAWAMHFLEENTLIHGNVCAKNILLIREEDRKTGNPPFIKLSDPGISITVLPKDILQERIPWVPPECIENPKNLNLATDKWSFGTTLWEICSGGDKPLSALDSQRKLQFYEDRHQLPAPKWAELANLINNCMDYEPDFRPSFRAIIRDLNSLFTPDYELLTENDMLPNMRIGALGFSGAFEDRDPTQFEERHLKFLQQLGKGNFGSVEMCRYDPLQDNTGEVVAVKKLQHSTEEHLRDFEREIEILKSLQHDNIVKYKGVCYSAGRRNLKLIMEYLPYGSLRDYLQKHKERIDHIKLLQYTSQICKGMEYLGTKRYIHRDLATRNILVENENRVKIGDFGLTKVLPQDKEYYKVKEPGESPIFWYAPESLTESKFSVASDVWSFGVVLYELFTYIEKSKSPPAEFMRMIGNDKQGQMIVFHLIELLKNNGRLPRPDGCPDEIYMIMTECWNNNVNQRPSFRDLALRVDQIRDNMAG

[6] = Volume of distribution at steady state in ICR (CD-1) mouse at 10 mg/kg, iv measured for 24 hrs by LC-MS/MS analysis; assay type: ADME, organism-based; conditions: in vivo
[7] = Metabolic stability in mouse liver microsomes assessed as half life in presence of NADPH by LC-MS/MS analysis; assay type: ADME, Microsome
[8] = target: T1, Protein deacetylase HDAC6 (Homo sapiens, UniProt Q9UBN7); assay: Inhibition of HDAC6 (unknown origin) using Boc-Lys(Ac)-AMC as substrate incubated for 30 mins by fluorescence based analysis
T1 sequence (Q9UBN7 whole entry): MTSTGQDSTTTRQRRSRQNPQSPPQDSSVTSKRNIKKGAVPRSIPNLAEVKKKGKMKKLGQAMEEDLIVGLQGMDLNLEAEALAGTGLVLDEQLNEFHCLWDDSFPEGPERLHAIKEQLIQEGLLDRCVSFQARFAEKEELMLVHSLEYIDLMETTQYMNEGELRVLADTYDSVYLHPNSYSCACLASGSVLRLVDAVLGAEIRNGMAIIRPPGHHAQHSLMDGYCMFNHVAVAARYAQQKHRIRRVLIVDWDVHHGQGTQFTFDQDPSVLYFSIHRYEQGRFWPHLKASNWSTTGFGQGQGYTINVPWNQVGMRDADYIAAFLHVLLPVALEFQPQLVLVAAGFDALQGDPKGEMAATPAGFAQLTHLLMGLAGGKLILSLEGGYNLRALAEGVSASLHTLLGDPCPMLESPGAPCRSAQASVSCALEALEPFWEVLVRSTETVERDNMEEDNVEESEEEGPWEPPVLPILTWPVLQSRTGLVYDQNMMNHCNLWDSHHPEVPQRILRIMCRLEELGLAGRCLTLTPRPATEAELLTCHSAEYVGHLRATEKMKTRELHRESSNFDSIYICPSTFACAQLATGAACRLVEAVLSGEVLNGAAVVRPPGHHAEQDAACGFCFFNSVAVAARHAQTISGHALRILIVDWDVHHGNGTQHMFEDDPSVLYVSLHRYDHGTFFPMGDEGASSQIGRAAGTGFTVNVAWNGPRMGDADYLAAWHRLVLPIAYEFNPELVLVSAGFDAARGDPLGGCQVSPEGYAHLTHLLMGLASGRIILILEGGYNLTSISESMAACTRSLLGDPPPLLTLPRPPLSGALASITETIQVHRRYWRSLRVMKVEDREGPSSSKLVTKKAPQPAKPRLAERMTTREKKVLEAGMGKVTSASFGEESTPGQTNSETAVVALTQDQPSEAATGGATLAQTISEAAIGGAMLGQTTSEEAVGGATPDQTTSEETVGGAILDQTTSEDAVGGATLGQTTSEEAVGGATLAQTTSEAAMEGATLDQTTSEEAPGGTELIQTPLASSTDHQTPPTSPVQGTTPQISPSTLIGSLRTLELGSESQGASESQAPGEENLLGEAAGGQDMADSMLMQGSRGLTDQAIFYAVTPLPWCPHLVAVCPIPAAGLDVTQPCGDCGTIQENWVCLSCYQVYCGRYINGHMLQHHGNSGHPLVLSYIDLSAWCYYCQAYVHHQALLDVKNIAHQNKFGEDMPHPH

[9] = Bioavailability in ICR (CD-1) mouse at 50 mg/kg, ip measured for 24 hrs by LC-MS/MS analysis; assay type: ADME, organism-based; conditions: in vivo, ip, 50 mg/kg, 24 h
Histone deacetylase 8 = target: T2, Histone deacetylase 8 (Homo sapiens, UniProt Q9BY41); assay: Inhibition of HDAC8 (unknown origin) using Boc-Lys-(trifluoroacetyl)-AMC as substrate incubated for 30 mins by fluorescence based analysis
T2 sequence (Q9BY41 whole entry): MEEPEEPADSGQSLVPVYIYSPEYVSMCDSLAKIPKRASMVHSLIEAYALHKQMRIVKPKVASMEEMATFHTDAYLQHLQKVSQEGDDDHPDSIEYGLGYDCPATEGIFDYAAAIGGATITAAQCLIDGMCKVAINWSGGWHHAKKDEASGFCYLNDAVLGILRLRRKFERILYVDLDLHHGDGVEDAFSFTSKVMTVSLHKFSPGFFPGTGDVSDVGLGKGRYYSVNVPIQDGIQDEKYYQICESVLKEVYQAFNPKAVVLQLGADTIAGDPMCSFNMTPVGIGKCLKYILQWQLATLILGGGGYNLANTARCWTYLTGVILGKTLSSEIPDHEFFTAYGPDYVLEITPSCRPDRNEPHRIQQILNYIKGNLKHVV

Tmax [1]: 11.4 min | MRT last at 24 h [2]: 131 min | t1/2 [3]: 89.4 min | IC50 [4]: 99 nM | IC50 [5]: 1.8 nM | Vdss [6]: 8.84 L/kg | half-life [7]: 37.5 min | IC50 [8]: 270 nM | F [9]: 151% | IC50 (Histone deacetylase 8): 160 nM
Structure (SMILES): Cc1cnc(Nc2ccc(OCCN3CCCC3)cc2)nc1Nc1ccc(C(=O)NO)cc1
